From PMC12668310, “High‐Throughput Synthesis and Screening of a Cyanimide Library Identifies Selective Inhibitors of ISG15‐Specific Protease mUSP18” (Angewandte Chemie (International Ed. in English), 2025)
Where two headings read alike, the source gives them in different places.

Molecular target: T1, mUSP18 (Mus musculus, UniProt Q9WTV6)
T1 construct: (46-368); His-tag (N); made in house
T1 sequence (Q9WTV6 46-368): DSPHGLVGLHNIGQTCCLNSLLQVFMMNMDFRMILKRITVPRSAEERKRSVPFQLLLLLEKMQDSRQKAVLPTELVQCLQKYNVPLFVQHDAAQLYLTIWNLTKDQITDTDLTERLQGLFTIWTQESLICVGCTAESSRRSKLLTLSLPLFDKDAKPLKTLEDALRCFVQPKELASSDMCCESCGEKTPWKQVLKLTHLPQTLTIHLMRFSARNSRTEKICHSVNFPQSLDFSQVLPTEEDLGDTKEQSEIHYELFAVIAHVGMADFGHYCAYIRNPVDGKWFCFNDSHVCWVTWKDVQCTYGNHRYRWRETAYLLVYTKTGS
Test: High-throughput screening, ISG15ct-RhoMP, single dose 1.25 µM
Format: biochemical, murine

[1] = mUSP18 %inhibition, carboxylic acid (CA) building block alone, read-out: %inh CA only
[2] = mUSP18 %inhibition, carboxylic acid (CA) with coupling reagents DIC/HOBT, read-out: %inh CA + DIC/HOBT
[3] = mUSP18 %inhibition, carboxylic acid (CA) building block alone
[4] = mUSP18 %inhibition, carboxylic acid (CA) with coupling reagents DIC/HOBT

inhibition at 1.25 µM [1] [%] | inhibition at 1.25 µM [2] [%] | Compound | other results
6.21 | 0.7 | O=C(O)c1cc(-n2cccc2)ccn1 [CA362] | 
0.56 | -9.05 | O=C(O)c1cnc(-c2cccnc2)s1 [CA450] | 
-0.52 | 2.94 | O=C(O)Cc1ccc(NS(=O)(=O)c2cccc(C(F)(F)F)c2)cc1 [CA467] | 
6.01 | 2.43 | O=C(O)c1ccnn1C1CCOCC1 [CA216] | 
-0.62 | 1.21 | O=C(O)c1ccnc(C2CC2)n1 [CA347] | 
6.04 | -8.39 | CCc1ccc(C(=O)N2CCC(C(=O)O)CC2)o1 [CA376] | 
-3.47 | 1.28 | O=C(O)c1cnn(Cn2cc(Cl)cn2)c1 [CA321] | 
3.02 | 5.27 | O=C(O)c1ccc(-c2ccccc2)o1 [CA250] | 
1.32 | 8.28 | O=C(O)Cc1cnn(-c2ccccc2)c1 [CA232] | 
-2.23 | -2.33 | O=C(O)c1ccc(-c2ncon2)cc1 [CA461] | 
2.35 | 4.1 | O=C(O)c1cc(-c2ccco2)on1 [CA223] | 
-0.67 | -3.53 | CNS(=O)(=O)c1ccc(-c2ccccc2OC(F)(F)F)c(C(=O)O)c1 [CA434] | 
-0.27 | -5.62 | O=C(O)Cc1csc(-c2ccccc2)n1 [CA428] | 
3.55 | 10.3 | O=C(O)C1=NNC(=O)C1c1ccccc1 (stereo not drawn) [CA252] | 
2.25 | 4.63 | O=C(O)C1CC(=O)N(C2CCCCCC2)C1 (stereo not drawn) [CA247] | 
3.16 | 9.05 | Cc1nn(-c2ccc(C(F)(F)F)cn2)c(C)c1CC(=O)O [CA253] | 
3.49 | -2.69 | Cc1nn(-c2ccccn2)c(C)c1CC(=O)O [CA315] | 
3.79 | 6.92 | COc1ccc(C(=O)O)cc1S(=O)(=O)NCc1ccccn1 [CA278] | 
5.76 | 5.39 | Cc1csc(N2CCC(C(=O)O)CC2)n1 [CA274] | 

inhibition at 1.25 µM [1] [%] | inhibition at 1.25 µM [2] [%] | Compound | other results
7.94 | 0.97 | Cn1nc(C(=O)N2CCOCC2)cc1C(=O)O [CA218] | 
5.98 | 8.2 | O=C(O)c1ccc(Cn2cc(Cl)c(C(F)(F)F)n2)o1 [CA372] | 
2.12 | 9.77 | O=C(O)[1C@@H]1CCCO[1C@H]1c1ccccc1 [CA370] | 
7.46 | -0.86 | O=C(O)C1CCOC2(CCC2)C1 (stereo not drawn) [CA220] | 
2.9 | 43.3 | COCC1CCN(c2ccc(C(=O)O)cc2)C1 (stereo not drawn) [CA313] | 
8.14 | -4.27 | O=C(O)c1ccc(C#Cc2ccccc2)cc1 [CA401] | 
-4.22 | -9 | O=C(O)c1cccn1Cc1ccccn1 [CA414] | 
0.72 | 1.39 | O=C(O)c1cccc(C(=O)N2CCCC2)n1 [CA369] | 
3.32 | -0.72 | Cc1ccc(S(=O)(=O)N[C@@H](Cc2ccccc2)C(=O)O)cc1 [CA291] | 
4.15 | 14.1 | O=C(O)c1ccc(Cl)c(N2CCCS2(=O)=O)c1 [CA281] | 
-0.57 | -1.79 | Cn1cc(-c2cc(C(=O)O)no2)cn1 [CA466] | 
-8.45 | -7.97 | O=C(O)c1cc(COc2ccc(F)cc2F)on1 [CA417] | 
1.66 | 2.42 | O=C(O)C1CCCN(S(=O)(=O)c2cccs2)C1 (stereo not drawn) [CA371] | 
-0.57 | 0.73 | Cn1nc(CC(=O)O)cc1C1CC1 [CA325] | 
6.43 | 1.42 | O=C(O)c1csc(-c2ccc(Br)s2)n1 [CA292] | 
4.39 | -0.81 | O=C(O)c1ccc(Cn2ccnn2)o1 [CA363] | 
9.12 | -3.37 | O=C(O)c1ccc(-c2cccs2)[nH]c1=O [CA284] | 
10.9 | -1.55 | O=C(O)c1occc1-c1ccccc1 [CA354] | 

The next lines start with the compound.

Compound | inhibition at 1.25 µM [1] [%] | inhibition at 1.25 µM [2] [%] | other results
Cc1ncc(C(=O)O)s1 [CA082] | -10.3 | -14.8 | 
O=C(O)c1ccc(/N=N/c2ccccc2)cc1 [CA016] | 3.44 | -5.83 | 
O=C(O)c1cn(CCc2ccccc2)nn1 [CA160] | 3.82 | 10.4 | 
Cn1nccc1[1C@@H]1OCCC[1C@H]1C(=O)O [CA164] | 14.4 | -2.41 | 
C#CCCC(=O)O [CA014] | -1.43 | -9.92 | 
Cc1ccc(N(CCC(=O)O)S(=O)(=O)c2ccccc2)cc1 [CA163] | 18.6 | 0.52 | 
CNc1ccc(C(=O)O)cc1 [CA052] | -7.36 | -19.1 | 
O=C(O)c1cccc(S(=O)(=O)NCC2CCCO2)c1 (stereo not drawn) [CA139] | 14.3 | -1.37 | 
O=C(O)c1noc(Cc2ccccc2F)n1 [CA121] | 10.7 | 7.15 | 
CC(C)(C)OC(=O)N1C[C@@H](O)C[C@@H]1C(=O)O [CA063] | -5.22 | -16.4 | 
CC1CCN(c2ncc(C(=O)O)s2)CC1 [CA172] | 9.83 | 13.4 | 
Cc1cncc(C(=O)O)c1 [CA010] | -2.59 | -11.3 | 
O=C(O)c1cnn(CCN2CCCC2)c1 [CA221] | 5.71 | 3.5 | 
O=C(O)c1ccccc1I [CA004] | -4.47 | -12.2 | 
C#CCCCC(=O)O [CA029] |  |  | inhibition at 1.25 µM (read-out: %inh CA + DIC/HOBT): -11.6%; inhibition at 1.25 µM (read-out: %inh CA only): -3.41%
O=C(O)c1cn(CC2CCOC2)nn1 (stereo not drawn) [CA318] | -2.05 | -0.23 | 
O=C(O)c1cccc2c1-c1ccccc1C2 [CA038] | 6.69 | -7.2 | 
Cn1c(=O)c2c(ncn2CC(=O)O)n(C)c1=O [CA018] | -2.06 | -10.4 | 
CN1C(=O)C[C@@H](C(=O)O)[C@@H]1c1cccnc1 [CA306] |  |  | %inh CA only [3]: 15.74%; %inh CA + DIC/HOBT [4]: -6.80%
O=C(O)C1(c2ccccc2Cl)CCOCC1 [CA178] | 4.04 | 11.9 | 
CC(C)C(=O)O [CA005] | -4.83 | -18 | 
O=C(O)c1ccc(Oc2cccc(Cl)c2Cl)nn1 [CA144] | 10.8 | 12.9 | 
Cc1nn(C2CCOCC2)c(C)c1C(=O)O [CA219] | 7.18 | -0.2 | 

Compound | inhibition at 1.25 µM [1] [%] | inhibition at 1.25 µM [2] [%] | other results
Cc1noc(C)c1COc1ccc(CC(=O)O)cc1 [CA191] | 4.33 | 1.25 | 
CN(C)c1ccc(C(=O)O)cc1 [CA062] | -0.0145 | 33.7 | 
O=C(O)c1cn(C2CCC2)nn1 [CA114] | 23.9 | 9 | 
O=C(O)CCc1ccc(O)cc1 [CA051] | -3.68 | -16.6 | 
O=C(O)Cc1cccc(OCc2cccnc2)c1 [CA202] | 0.44 | 3.16 | 
Cc1ccc(-n2c(C)ccc2C)c(C(=O)O)c1 [CA96] | 74.4 | 60 | inhibition of mUSP18 by individual CA's and coupling reagents (screened with and without DIC/HOBt): could inhibit mUSP18
O=C(O)c1cc(OCc2ccccc2)ccn1 [CA150] | 3.17 | 5.95 | 
O=C(O)C1CCN(Cc2ccc(Cl)s2)CC1 [CA107] | 13 | 10.7 | 
O=C(O)c1c(F)c(F)c(O)c(F)c1F [CA055] | -5.28 | -14.4 | 
O=C(O)c1cn(CC(=O)N2CCCC2)nn1 [CA161] | 2.32 | 14.5 | 
O=C(O)CCCCCBr [CA025] | 7.25 | -8.17 | 
O=C(O)c1ncoc1-c1cccs1 [CA094] | 14.4 | 10.3 | 
CC(=O)CCCCC(=O)O [CA032] | -5.09 | -11.3 | 
O=C(O)c1cnc(COc2ccccc2)s1 [CA154] | 0.13 | 5.09 | 
CCCC(=O)O [CA007] | -4.83 | -14.7 | 
CC(C)(C)OC(=O)Nc1ccccc1C(=O)O [CA009] | -1.43 | -19.3 | 
Cc1ccc(-c2cc(C(=O)O)[nH]n2)o1 [CA205] | 0.0344 | 4.51 | 
O=C(O)CNC(=O)c1ccccc1 [CA019] | -4.39 | -8.67 | 
COCC(=O)O [CA080] | -8.74 | -15.7 | 
O=C(O)c1cc(-n2ccnn2)ccc1F [CA168] | 11.2 | -1.08 | 
CN1CCN(CC(=O)O)CC1 [CA076] | -7.27 | -15.7 | 
Cc1ccc(Br)c(C(=O)O)c1 [CA053] |  |  | %inh CA only [3]: -8.05%; %inh CA + DIC/HOBT [4]: -15.25%
